The text below walks through data of ChEMBL document CHEMBL3871302, “Synthesis of novel steroidal agonists, partial agonists, and antagonists for the glucocorticoid receptor” (Bioorg Med Chem Lett, 2017).

Assay type in all cases: cell-based
Experiment [1] has as its target T1, Glucocorticoid receptor (Homo sapiens) (UniProt P04150).
T1 sequence (whole entry): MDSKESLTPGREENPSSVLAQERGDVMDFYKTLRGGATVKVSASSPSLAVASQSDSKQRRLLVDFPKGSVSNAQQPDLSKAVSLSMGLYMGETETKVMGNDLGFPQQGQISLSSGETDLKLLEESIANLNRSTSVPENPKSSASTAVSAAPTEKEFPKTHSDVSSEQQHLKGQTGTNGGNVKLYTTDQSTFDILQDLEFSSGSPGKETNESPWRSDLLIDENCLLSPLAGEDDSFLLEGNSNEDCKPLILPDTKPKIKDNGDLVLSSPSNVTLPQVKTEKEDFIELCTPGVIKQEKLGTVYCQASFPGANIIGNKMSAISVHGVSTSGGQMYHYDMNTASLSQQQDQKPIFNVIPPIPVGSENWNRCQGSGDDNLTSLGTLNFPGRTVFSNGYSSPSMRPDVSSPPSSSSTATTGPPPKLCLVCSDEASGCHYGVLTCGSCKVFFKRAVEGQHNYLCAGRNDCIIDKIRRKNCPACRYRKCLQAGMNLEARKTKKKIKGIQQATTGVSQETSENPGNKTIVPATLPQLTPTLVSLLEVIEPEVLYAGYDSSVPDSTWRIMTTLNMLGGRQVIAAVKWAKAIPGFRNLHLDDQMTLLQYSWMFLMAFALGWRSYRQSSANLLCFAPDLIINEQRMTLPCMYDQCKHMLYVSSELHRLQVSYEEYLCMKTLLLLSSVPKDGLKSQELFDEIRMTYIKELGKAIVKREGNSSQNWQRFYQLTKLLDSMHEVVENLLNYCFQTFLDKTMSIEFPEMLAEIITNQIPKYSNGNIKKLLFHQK
The experiment in a line: (§1) Agonist activity at GR in human HepG2 cells assessed as protein mediated-transcriptional activity by MMTV-promoter driven luciferase reporter gene assay.

The target in experiment [2] is T1, Glucocorticoid receptor (Homo sapiens). Kind of experiment: (§2) Antagonist activity at GR in human HepG2 cells assessed as inhibition of protein mediated-transcriptional activity by MMTV-promoter driven luciferase reporter gene assay.
The target in experiment [3] is T2, Glucocorticoid receptor (Homo sapiens, UniProt P04150).
T2 sequence (P04150 whole entry): T1 sequence (whole entry)
The experiment is described as §2.

The target in experiment [4] is T3, Glucocorticoid receptor (Mus musculus) (UniProt P06537).
T3 sequence (whole entry): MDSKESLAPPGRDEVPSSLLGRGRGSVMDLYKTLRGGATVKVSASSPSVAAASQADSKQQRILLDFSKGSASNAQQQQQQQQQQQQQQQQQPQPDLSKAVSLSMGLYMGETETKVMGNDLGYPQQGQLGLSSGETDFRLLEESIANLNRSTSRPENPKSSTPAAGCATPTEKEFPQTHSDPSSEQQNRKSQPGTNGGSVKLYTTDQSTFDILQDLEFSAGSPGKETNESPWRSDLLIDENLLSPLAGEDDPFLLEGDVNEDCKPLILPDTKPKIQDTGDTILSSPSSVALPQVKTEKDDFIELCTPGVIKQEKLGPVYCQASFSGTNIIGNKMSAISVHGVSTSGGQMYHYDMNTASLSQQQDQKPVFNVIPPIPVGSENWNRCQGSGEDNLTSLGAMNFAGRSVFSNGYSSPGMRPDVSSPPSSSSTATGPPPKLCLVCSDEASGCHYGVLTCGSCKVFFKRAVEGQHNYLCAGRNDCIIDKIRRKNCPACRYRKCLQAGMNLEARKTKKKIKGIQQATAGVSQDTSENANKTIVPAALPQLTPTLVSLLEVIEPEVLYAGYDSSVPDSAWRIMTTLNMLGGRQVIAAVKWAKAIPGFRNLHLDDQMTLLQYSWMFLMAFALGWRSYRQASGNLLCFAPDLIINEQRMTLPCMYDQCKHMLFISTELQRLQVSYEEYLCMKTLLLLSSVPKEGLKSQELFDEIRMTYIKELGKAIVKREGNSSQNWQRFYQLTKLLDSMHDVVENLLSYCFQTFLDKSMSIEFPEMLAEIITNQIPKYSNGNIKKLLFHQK
The experiment in a line: Agonist activity at GR in mouse C2C12 cells assessed as suppression of LPS-induced IL6 production by alphaLISA assay.

The target in experiment [5] is T2, Glucocorticoid receptor. The experiment is described as §1.
The target of experiment [6] is T3, Glucocorticoid receptor (Mus musculus). Kind of experiment: Antagonist activity at GR in mouse C2C12 cells assessed as increase in LPS-induced IL6 production by alphaLISA assay relative to control. More on the design: scale not given: the % may be the effect or the level left. For orientation: In Alpha technology, singlet oxygen from a donor bead excites a nearby acceptor bead.

The target of experiment [7] is T1, Glucocorticoid receptor (Homo sapiens). The experiment in a line: Antagonist activity at GR in human HepG2 cells assessed as inhibition of protein mediated-transcriptional activity at 10 uM by MMTV-promoter driven luciferase reporter gene assay. (In general: A reporter such as luciferase makes a cellular process visible.)

Calls of active or inactive are those of the source. The calls are words filed in the database; no cut-off is given here.

Take `CC#C[C@]1(O)CC[C@H]2[C@@H]3CCc4cc(C(=O)Nc5cccnc5C)ccc4[C@H]3[C@@H](OCc3ccccc3)C[C@@]21C`: the results for the Efficacy in experiment [1] and in experiment [2] were -0.4% and -0.1%, respectively. Also, the half-maximal inhibitory concentration (IC50) (in general, the concentration needed to halve the response being measured) in experiment [3] turned out to be 0.4 nM. Moreover, the result in experiment [4] was Active.
Consider `Cc1ncccc1NC(=O)c1ccc2c(c1)CC[C@@H]1[C@@H]2[C@@H](O)C[C@@]2(C)[C@H]1CC[C@@]2(O)C#C[Si](C)(C)C`, for which the Efficacy in experiment [1] is 110%; in experiment [2] it was 90%. Besides, the EC50 – broadly, the concentration giving half of the maximal effect – in experiment [5] amounted to 47 nM. In addition, the outcome in experiment [6] was Active.
`CC#C[C@]1(O)CC[C@H]2[C@@H]3CCc4cc(C(=O)Nc5ncccc5C)ccc4[C@H]3[C@@H](O)C[C@@]21C`: the results for the Efficacy in experiment [1] and in experiment [2] were 92% and 239%, respectively. Further, in experiment [5], the EC50 was 280 nM. Further, the result in experiment [4] was Active.
As to `CCCCC#C[C@]1(O)CC[C@H]2[C@@H]3CCc4cc(C(=O)Nc5cccnc5C)ccc4[C@H]3[C@@H](O)C[C@@]21C`, the Efficacy in experiment [1] stood at 56%; in experiment [2], 74%. In experiment [5], the half-maximal effective concentration (EC50) stood at 100 nM. Also, in experiment [3], the IC50 stood at 2350 nM. Moreover, in experiment [6], the result was Active.
Take `CC#C[C@]1(O)CC[C@H]2[C@@H]3CCc4cc(C(=O)Nc5cncc(C)c5)ccc4[C@H]3[C@@H](O)C[C@@]21C`: the Efficacy was 22% in experiment [7] and -0.1% in experiment [1]. Also, the outcome in experiment [6] was Active.
With `CC#C[C@]1(O)CC[C@H]2[C@@H]3CCc4cc(C(=O)Nc5cnccc5C)ccc4[C@H]3[C@@H](O)C[C@@]21C`, the Efficacy in experiment [1] stood at 73%; in experiment [2], 147%. Also, the EC50 in experiment [5] came out at 240 nM. In experiment [4], the outcome was Active.
With `C=CCOC(=O)O[C@H]1C[C@@]2(C)[C@@H](CC[C@@]2(O)C#CC)[C@@H]2CCc3cc(C(=O)Nc4cccnc4C)ccc3[C@H]21`, the Efficacy in experiment [1] is 2.4%; in experiment [2], -0.7%. Further, the half-inhibitory concentration (IC50) in experiment [3] amounted to 84 nM. The result in experiment [4] was Active.
Turning to `CC#C[C@]1(O)CC[C@H]2[C@@H]3CCc4cc(C(=O)Nc5cccnc5C)ccc4C3=CC[C@@]21C`, the Efficacy was determined as 51.6% in experiment [1] and 30.6% in experiment [2]. Besides, the EC50 in experiment [5] worked out at 1860 nM. The outcome in experiment [4] was Active.
As for `Cc1ncccc1NC(=O)c1ccc2c(c1)CC[C@@H]1[C@@H]2[C@@H](O)C[C@@]2(C)[C@H]1CC[C@@]2(O)C#Cc1ccccc1`, the Efficacy stood at 2.1% in experiment [1] and 1.4% in experiment [2]. In addition, the IC50 in experiment [3] stood at 558 nM. Further, the result in experiment [6] was Active.
For the molecule `CC#C[C@]1(O)CC[C@H]2[C@@H]3CCc4cc(C(=O)Nc5ccncc5C)ccc4[C@H]3[C@@H](O)C[C@@]21C`, the Efficacy came to 12% in experiment [1] and 23% in experiment [2]. The EC50 in experiment [5] turned out to be 149 nM. In experiment [3], the IC50 turned out to be 1360 nM. Moreover, the result in experiment [6] was Active.
For `CC#C[C@]1(O)CC[C@H]2[C@@H]3CCc4cc(C(=O)Nc5cccnc5C)ccc4[C@H]3[C@H](O)C[C@@]21C`, the Efficacy in experiment [1] stood at 19.4%; in experiment [2], 55%. Also, the outcome in experiment [4] was Active.
With `CC#C[C@]1(O)CC[C@H]2[C@@H]3CCc4cc(C(=O)Nc5cccnc5)ccc4[C@H]3[C@@H](O)C[C@@]21C`, the Efficacy in experiment [1] came out at 0.2%; in experiment [2] it was 10%. The half-inhibitory concentration (IC50) in experiment [3] turned out to be 455 nM. The Activity in experiment [6] turned out to be 50%.
For `CC#C[C@]1(O)CC[C@H]2[C@@H]3CCc4cc(C(=O)Nc5cccnc5C)ccc4[C@H]3[C@@H](OCc3ccccc3Cl)C[C@@]21C`, the values for the Efficacy in experiment [1] and in experiment [2] were 0.6% and 1.7%, respectively. In addition, the IC50 in experiment [3] worked out at 1.4 nM. Besides, in experiment [4], the result was Active.
For the molecule `C=CCO[C@H]1C[C@@]2(C)[C@@H](CC[C@@]2(O)C#CC)[C@@H]2CCc3cc(C(=O)Nc4cccnc4C)ccc3[C@H]21`, the Efficacy came out at 56% in experiment [1] and 57% in experiment [2]. Moreover, the concentration giving a half-maximal response (EC50) in experiment [5] stood at 0.11 nM. Also, the IC50 in experiment [3] turned out to be 0.03 nM. Further, in experiment [4], the result was Active.
As for `CC#C[C@]1(O)CC[C@H]2[C@@H]3CCc4cc(C(=O)Nc5cccnc5C)ccc4[C@H]3[C@@H](O)C[C@@]21C`, the Efficacy is 35% in experiment [1] and 46% in experiment [2]. In experiment [5], the EC50 turned out to be 265 nM. Besides, the IC50 in experiment [3] came out at 626 nM. Moreover, the outcome in experiment [4] was Active.
On to `CC#C[C@]1(O)CC[C@H]2[C@@H]3CCc4cc(C(=O)Nc5cccnc5C)ccc4[C@H]3[C@@H](OC)C[C@@]21C`, for which the Efficacy came to 71% in experiment [1] and 84% in experiment [2]. Further, the half-maximal effective concentration (EC50) in experiment [5] amounted to 0.04 nM. For the same molecule, in experiment [4], the result was Active.
Regarding `Cc1ncccc1NC(=O)c1ccc2c(c1)CC[C@@H]1[C@@H]2[C@@H](O)C[C@@]2(C)[C@H]1CC[C@@]2(O)C#CC(C)C`, the Efficacy in experiment [1] turned out to be 28%; in experiment [2], 39%. For the same molecule, the EC50 in experiment [5] was over 5000 nM. In addition, the IC50 in experiment [3] amounted to 37 nM. Further, the outcome in experiment [6] was Active.
Take `Cc1ncccc1NC(=O)c1ccc2c(c1)CC[C@@H]1[C@@H]2[C@@H](O)C[C@]2(C)[C@@H](O)CC[C@@H]12`: the Efficacy in experiment [1] turned out to be 0.4%; in experiment [2], 85%. In addition, the result in experiment [6] was Active.
Take `CC#C[C@]1(O)CC[C@H]2[C@@H]3CCc4cc(C(=O)Nc5cccnc5C)ccc4[C@H]3[C@@H](OCC)C[C@@]21C`: the Efficacy in experiment [1] was 67%; in experiment [2], 73%. In addition, the EC50 in experiment [5] was 0.05 nM. For the same molecule, the result in experiment [4] was Active.
`Cc1ncccc1NC(=O)c1ccc2c(c1)CC[C@@H]1[C@@H]2[C@@H](O)C[C@@]2(C)[C@H]1CC[C@]2(C)O`: the Efficacy in experiment [1] was -0.5%; in experiment [2], 112%. The result in experiment [6] was Active.
For `CC#C[C@]1(O)CC[C@H]2[C@@H]3CCc4cc(C(=O)Nc5cccnc5C)ccc4[C@H]3[C@@H](OCc3cccc(Cl)c3)C[C@@]21C`, the Efficacy is 0.2% in experiment [1] and -0.3% in experiment [2]. For the same molecule, the IC50 in experiment [3] came to 0.9 nM. Moreover, the outcome in experiment [4] was Active.
Take `C#C[C@]1(O)CC[C@H]2[C@@H]3CCc4cc(C(=O)Nc5cccnc5C)ccc4[C@H]3[C@@H](O)C[C@@]21C`: the Efficacy in experiment [1] was determined as 3.2%; in experiment [2], 96%. Further, the outcome in experiment [6] was Active.
With `CC#C[C@]1(O)CC[C@H]2[C@@H]3CCc4cc(C(=O)Nc5cccnc5C)ccc4[C@H]3[C@@H](OCc3ccc(Cl)cc3)C[C@@]21C`, the Efficacy in experiment [1] is -0.2%; in experiment [2] it was 0.06%. Besides, the half-maximal inhibitory concentration (IC50) in experiment [3] was 0.07 nM. Moreover, in experiment [4], the outcome was Active.
